Where “and” joins values, the source holds several entries; their conditions need not be identical. Identical values can stand only once.
Assays:
Format in all cases: in vivo, rat
[1] = test system: pregnancy in rats; experiment: Pregnancy termination in rats, compounds administered intragastrically on day 10 of pregnancy (Table 3); conditions: for Serum Progesterone (Percent Control) / Serum Progesterone ng/ml + S.E.: serum day 11, 24 hours after injection; for Adrenal Wt. mg + SE / Fetal Viability: Normal Fetuses/Implantation Sites / Fetal Viability: Normal Fetuses/Implantation Sites (Percent) / Number of Rats Pregnant/Number of Rats Treated / Number of Rats Pregnant/Number of Rats Treated (Percent): autopsy day 14
Protocol: (§1) The following tables list the results for a compound of Formula IV as compared with a control of previously known 2α-cyano-17β-hydroxy-3-oxo-4,4,17α-trimethylandrost-5-end(Cyanoketone) for termination of pregnancy.
(§2) ^1 Compounds were administered intragastrically once daily on days 10
of pregnancy in a vehicle consisting of PEG400, propylene glycol and 100
percent ethanol (50:40:10, v:v:v). Serum for progesterone determination
was drawn on day 11 of pregnancy, 24 hours after the initial injection of
(§3) compound. The animals were autopsied on day 14 of pregnancy.

[2] = test system: pregnancy in rats; experiment: Pregnancy termination in rats, compounds administered intragastrically for four days (Table 1); conditions: for Serum Progesterone (Percent Control) / Serum Progesterone ng/ml + S.E.: serum day 11, 24 hours after initial injection; for Adrenal Wt. mg + SE / Fetal Viability: Normal Fetuses/Implantation Sites / Fetal Viability: Normal Fetuses/Implantation Sites (Percent) / Number of Rats Pregnant/Number of Rats Treated / Number of Rats Pregnant/Number of Rats Treated (Percent): autopsy day 14
Protocol: as §1, §2
through 13 of pregnancy in a vehicle consisting of PEG400, propylene
glycol and 100 percent ethanol (50:40:10, v:v:v). Serum for progesterone
determination was drawn on day 11 of pregnancy, 24 hours after the initia
injection of compound. The animals were autopsied on day 14 of pregnancy.

[3] = test system: pregnancy in rats; experiment: Termination of pregnancy in rats, compounds administered subcutaneously (Table 2); conditions: for Serum Progesterone (Percent Control) / Serum Progesterone ng/ml + S.E.: serum day 11, 24 hours after initial injection
Protocol: as §1
^1 Compounds given subcutaneously in corn oil vehicle once daily on
days 10 through 13 of pregnancy. Serum for progesterone determination was
drawn on day 11 of pregnancy, 24 hours after the initial injection of
as §3
^2 Serum progesterone values determined by RIA at Interlab Associates

[4] = 4 mg/kg intragastrically on day 10 of pregnancy
[5] = 4 mg/kg intragastrically once on day 10 of pregnancy
[6] = 8 mg/kg intragastrically on day 10 of pregnancy
[7] = 8 mg/kg intragastrically once on day 10 of pregnancy
[8] = 16 mg/kg intragastrically on day 10 of pregnancy
[9] = 16 mg/kg intragastrically once on day 10 of pregnancy
[10] = 2 mg/kg/day intragastrically days 10-13 of pregnancy
[11] = 2 mg/kg/day intragastrically once daily days 10-13 of pregnancy
[12] = 4 mg/kg/day intragastrically days 10-13 of pregnancy
[13] = 4 mg/kg/day intragastrically once daily days 10-13 of pregnancy
[14] = 8 mg/kg/day intragastrically days 10-13 of pregnancy
[15] = 8 mg/kg/day intragastrically once daily days 10-13 of pregnancy
[16] = 16 mg/kg/day intragastrically days 10-13 of pregnancy
[17] = 16 mg/kg/day intragastrically once daily days 10-13 of pregnancy
[18] = 2 mg/kg/day subcutaneously days 10-13 of pregnancy
[19] = 2 mg/kg/day subcutaneously in corn oil once daily days 10-13 of pregnancy, autopsy day 14
[20] = 4 mg/kg/day subcutaneously days 10-13 of pregnancy
[21] = 4 mg/kg/day subcutaneously in corn oil once daily days 10-13 of pregnancy, autopsy day 14
[22] = 8 mg/kg/day subcutaneously days 10-13 of pregnancy
[23] = 8 mg/kg/day subcutaneously in corn oil once daily days 10-13 of pregnancy, autopsy day 14
[24] = 16 mg/kg/day subcutaneously days 10-13 of pregnancy, 16 mg/kg/day
[25] = 16 mg/kg/day subcutaneously in corn oil once daily days 10-13 of pregnancy, autopsy day 14
[26] = 16 mg/kg/day subcutaneously in corn oil once daily days 10-13 of pregnancy, autopsy day 14, 16 mg/kg/day

CC(=O)OC1=C(C#N)C[C@@]2(C)C(=CC[C@@H]3[C@@H]2CC[C@@]2(C)[C@H]3CC[C@]2(C)O)C1(C)C [3-(acetyloxy)-17β-hydroxy-4,4,17α-trimethylandrosta-2,5-diene-2-carbonitrile]
Serum Progesterone (Percent Control) [1, 4]: 33 Percent Control
Serum Progesterone ng/ml + S.E. [1, 4]: 19.0 + 7.4 ng/ml
Adrenal Wt. mg + SE [1, 5]: 60.0 + 4.2 mg
Fetal Viability: Normal Fetuses/Implantation Sites [1, 5]: 6/82
Fetal Viability: Normal Fetuses/Implantation Sites (Percent) [1, 5]: 7%
Number of Rats Pregnant/Number of Rats Treated [1, 5]: 1/8
Number of Rats Pregnant/Number of Rats Treated (Percent) [1, 5]: 13%
Serum Progesterone (Percent Control) [1, 6]: 18 Percent Control
Serum Progesterone ng/ml + S.E. [1, 6]: 10.4 + 2.5 ng/ml
Adrenal Wt. mg + SE [1, 7]: 62.0 + 2.5 mg
Fetal Viability: Normal Fetuses/Implantation Sites [1, 7]: 0/81
Fetal Viability: Normal Fetuses/Implantation Sites (Percent) [1, 7]: 0%
Number of Rats Pregnant/Number of Rats Treated [1, 7]: 0/7
Number of Rats Pregnant/Number of Rats Treated (Percent) [1, 7]: 0%
Serum Progesterone (Percent Control) [1, 8]: 24 Percent Control
Serum Progesterone ng/ml + S.E. [1, 8]: 13.8 + 1.7 ng/ml
Adrenal Wt. mg + SE [1, 9]: 56.8 + 2.0 mg
Fetal Viability: Normal Fetuses/Implantation Sites [1, 9]: 0/60
Fetal Viability: Normal Fetuses/Implantation Sites (Percent) [1, 9]: 0%
Number of Rats Pregnant/Number of Rats Treated [1, 9]: 0/6
Number of Rats Pregnant/Number of Rats Treated (Percent) [1, 9]: 0%
Serum Progesterone (Percent Control) [2, 10]: 109 Percent Control
Serum Progesterone ng/ml + S.E. [2, 10]: 49.6 + 6.2 ng/ml
Adrenal Wt. mg + SE [2, 11]: 68.9 + 2.2 mg
Fetal Viability: Normal Fetuses/Implantation Sites [2, 11]: 60/89
Fetal Viability: Normal Fetuses/Implantation Sites (Percent) [2, 11]: 67%
Number of Rats Pregnant/Number of Rats Treated [2, 11]: 7/9
Number of Rats Pregnant/Number of Rats Treated (Percent) [2, 11]: 78%
Serum Progesterone (Percent Control) [2, 12]: 29 Percent Control
Serum Progesterone ng/ml + S.E. [2, 12]: 13.4 + 3.9 ng/ml
Adrenal Wt. mg + SE [2, 13]: 68.6 + 2.3 mg
Fetal Viability: Normal Fetuses/Implantation Sites [2, 13]: 0/112
Fetal Viability: Normal Fetuses/Implantation Sites (Percent) [2, 13]: 0%
Number of Rats Pregnant/Number of Rats Treated [2, 13]: 0/10
Number of Rats Pregnant/Number of Rats Treated (Percent) [2, 13]: 0%
Serum Progesterone (Percent Control) [2, 14]: 40 Percent Control
Serum Progesterone ng/ml + S.E. [2, 14]: 18.1 + 2.5 ng/ml
Adrenal Wt. mg + SE [2, 15]: 70.3 + 3.1 mg
Fetal Viability: Normal Fetuses/Implantation Sites [2, 15]: 0/95
Fetal Viability: Normal Fetuses/Implantation Sites (Percent) [2, 15]: 0%
Number of Rats Pregnant/Number of Rats Treated [2, 15]: 0/10
Number of Rats Pregnant/Number of Rats Treated (Percent) [2, 15]: 0%
Serum Progesterone (Percent Control) [2, 16]: 29 Percent Control
Serum Progesterone ng/ml + S.E. [2, 16]: 13.4 + 2.0 ng/ml
Adrenal Wt. mg + SE [2, 17]: 72.1 + 2.1 mg
Fetal Viability: Normal Fetuses/Implantation Sites [2, 17]: 0/111
Fetal Viability: Normal Fetuses/Implantation Sites (Percent) [2, 17]: 0%
Number of Rats Pregnant/Number of Rats Treated [2, 17]: 0/10
Number of Rats Pregnant/Number of Rats Treated (Percent) [2, 17]: 0%
Serum Progesterone (Percent Control) [3, 18]: 91 Percent Control
Serum Progesterone ng/ml + S.E. [3, 18]: 52.3 + 2.8 ng/ml
Adrenal Wt. mg + SE [3, 19]: 81.2 + 3.2 mg
Fetal Viability: Normal Fetuses/Implantation Sites [3, 19]: 101/109
Fetal Viability: Normal Fetuses/Implantation Sites (Percent) [3, 19]: 93%
Number of Rats Pregnant/Number of Rats Treated [3, 19]: 9/9
Number of Rats Pregnant/Number of Rats Treated (Percent) [3, 19]: 100%
Serum Progesterone (Percent Control) [3, 20]: 32 Percent Control
Serum Progesterone ng/ml + S.E. [3, 20]: 14.2 + 4.9 ng/ml
Adrenal Wt. mg + SE [3, 21]: 72.9 + 3.8 mg
Fetal Viability: Normal Fetuses/Implantation Sites [3, 21]: 21/72
Fetal Viability: Normal Fetuses/Implantation Sites (Percent) [3, 21]: 29%
Number of Rats Pregnant/Number of Rats Treated [3, 21]: 2/7
Number of Rats Pregnant/Number of Rats Treated (Percent) [3, 21]: 29%
Serum Progesterone (Percent Control) [3, 22]: 29 Percent Control
Serum Progesterone ng/ml + S.E. [3, 22]: 12.7 + 1.4 ng/ml
Adrenal Wt. mg + SE [3, 23]: 83.9 + 2.0 mg
Fetal Viability: Normal Fetuses/Implantation Sites [3, 23]: 0/112
Fetal Viability: Normal Fetuses/Implantation Sites (Percent) [3, 23]: 0%
Number of Rats Pregnant/Number of Rats Treated [3, 23]: 0/9
Number of Rats Pregnant/Number of Rats Treated (Percent) [3, 23]: 0%
Serum Progesterone (Percent Control) [3, 24]: 26 Percent Control and 36 Percent Control
Serum Progesterone ng/ml + S.E. [3, 24]: 13.1 + 1.4 ng/ml and 15.7 + 2.8 ng/ml
Fetal Viability: Normal Fetuses/Implantation Sites (Percent) [3, 25]: 0%
Number of Rats Pregnant/Number of Rats Treated [3, 25]: 0/8
Number of Rats Pregnant/Number of Rats Treated (Percent) [3, 25]: 0%
Adrenal Wt. mg + SE [3, 26]: 93.8 + 4.9 mg and 98.3 + 2.8 mg
Fetal Viability: Normal Fetuses/Implantation Sites [3, 26]: 0/98 and 0/84
